Results reported in US11834453B2, “Substituted pyrimido[5,4-d]pyrimidines as HER2 inhibitors” (Array BioPharma Inc., priority 2020, dated 2023).
Where two headings read alike, the source gives them in different places.

Tests used:
[1] = target: ErbB2 with Exon 20 YVMA insertion (HER2-YVMA) (Homo sapiens (Human), UniProt P04626, INS775YVMA); assay: Cellular phosphorylation assay, constitutive ErbB2 phosphorylation (Y1196) in engineered NIH 3T3 cells, Assay 4; assay type: cell-based
Summary of the method: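 Engineered NIH 3T3 cells expressing HER2-YVMA treated with compounds 1 h at 37 °C, then formaldehyde-fixed and methanol-permeabilized. pErbB2 Y1196 detected by in-cell infrared immunofluorescence, normalized to GAPDH. IC50 from the normalized curves.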

[2] = target: ErbB2 insYVMA (HER2-YVMA, SEQ ID NO: 2) (Homo sapiens, UniProt P04626, INS775YVMA/P1170A); assay: biochemical; details: ErbB2 insYVMA enzyme assay
EGFR wild type (EGFR WT) = EGFR wild type (EGFR WT) (Homo sapiens (Human), UniProt P00533); assay: Cellular phosphorylation assay, EGF-stimulated EGFR phosphorylation in engineered NIH 3T3 cells, Phospho-EGFR DuoSet IC ELISA, Assay 5; assay type: cell-based
Summary of the method: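 NIH 3T3 cells expressing EGFR WT (20,000/well, attached overnight) were exposed to serially diluted compound for 1 h at 37 °C, then stimulated with 100 ng/ml rEGF for 10 min. Phospho-EGFR in lysates measured by sandwich ELISA optical density; IC50 from curves.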

ErbB2 WT = ErbB2 WT (Homo sapiens (Human), UniProt P04626); assay: ErbB enzyme assay (CisBio HTRF KinEASE-TK), Assay 2; assay type: biochemical
Summary of the method: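 ErbB2 phosphorylates 250 nM biotin-TK substrate at 1 mM ATP in 25 mM HEPES pH 7.4, 10 mM MgCl2, 0.01% Triton X-100 and 2% DMSO, for 30 min at 22 °C. Product is detected by HTRF with Sa-XL665 and TK-Ab-Cryptate. Percent of control is set by DMSO-only wells and pre-quenched wells.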

EGFR = EGFR (Homo sapiens (Human), UniProt P00533); assay: ErbB enzyme assay (CisBio HTRF KinEASE-TK), Assay 3; assay type: biochemical
Summary of the method: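 HTRF KinEASE-TK assay: kinase with 250 nM biotinylated TK-substrate and 1 mM ATP in 25 mM HEPES pH 7.4, 10 mM MgCl2, 0.01% Triton X-100, 2% DMSO, 30 min at 22 °C. Quenched with Sa-XL665/TK-Ab-Cryptate, read after 1 h. IC50 from 4-parameter fit of percent of control.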

Sequence of ErbB2 insYVMA (HER2-YVMA, SEQ ID NO: 2) (P04626 with tags, fused parts or gaps INS775YVMA/P1170A limits assumed): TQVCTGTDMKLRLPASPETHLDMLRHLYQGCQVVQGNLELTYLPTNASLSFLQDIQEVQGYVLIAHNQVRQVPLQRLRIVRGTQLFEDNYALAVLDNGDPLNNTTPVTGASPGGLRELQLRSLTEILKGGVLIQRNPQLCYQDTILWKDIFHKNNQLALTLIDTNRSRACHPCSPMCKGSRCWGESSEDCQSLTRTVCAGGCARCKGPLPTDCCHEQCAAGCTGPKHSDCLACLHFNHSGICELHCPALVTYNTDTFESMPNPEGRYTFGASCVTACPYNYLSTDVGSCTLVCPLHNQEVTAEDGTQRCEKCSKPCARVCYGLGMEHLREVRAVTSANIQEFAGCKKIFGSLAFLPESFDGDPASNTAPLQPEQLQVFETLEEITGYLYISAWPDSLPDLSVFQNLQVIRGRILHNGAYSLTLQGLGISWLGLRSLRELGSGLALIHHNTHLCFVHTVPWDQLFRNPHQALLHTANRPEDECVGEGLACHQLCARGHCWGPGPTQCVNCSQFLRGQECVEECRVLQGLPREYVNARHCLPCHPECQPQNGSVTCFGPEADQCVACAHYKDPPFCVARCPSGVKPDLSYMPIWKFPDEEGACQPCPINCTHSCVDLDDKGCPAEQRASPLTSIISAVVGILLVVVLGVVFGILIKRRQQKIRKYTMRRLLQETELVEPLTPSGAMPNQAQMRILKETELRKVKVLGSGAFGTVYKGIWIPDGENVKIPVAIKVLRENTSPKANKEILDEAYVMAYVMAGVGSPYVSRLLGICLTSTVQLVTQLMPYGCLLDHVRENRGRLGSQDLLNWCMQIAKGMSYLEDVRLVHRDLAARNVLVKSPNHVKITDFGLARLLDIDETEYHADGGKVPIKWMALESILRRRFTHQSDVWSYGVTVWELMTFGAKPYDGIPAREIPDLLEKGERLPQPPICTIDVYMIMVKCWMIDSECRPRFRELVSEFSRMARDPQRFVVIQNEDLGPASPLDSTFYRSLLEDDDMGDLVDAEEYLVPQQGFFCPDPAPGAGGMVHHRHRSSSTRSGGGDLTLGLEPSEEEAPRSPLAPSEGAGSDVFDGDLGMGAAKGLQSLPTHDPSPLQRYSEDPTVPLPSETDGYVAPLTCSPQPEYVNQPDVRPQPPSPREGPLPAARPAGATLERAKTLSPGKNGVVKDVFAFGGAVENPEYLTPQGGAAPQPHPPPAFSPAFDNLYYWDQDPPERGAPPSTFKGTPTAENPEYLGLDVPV
Sequence of ErbB2 with Exon 20 YVMA insertion (HER2-YVMA) (P04626 other isoform, or with tags, fused parts or gaps ins YVMA behind 775): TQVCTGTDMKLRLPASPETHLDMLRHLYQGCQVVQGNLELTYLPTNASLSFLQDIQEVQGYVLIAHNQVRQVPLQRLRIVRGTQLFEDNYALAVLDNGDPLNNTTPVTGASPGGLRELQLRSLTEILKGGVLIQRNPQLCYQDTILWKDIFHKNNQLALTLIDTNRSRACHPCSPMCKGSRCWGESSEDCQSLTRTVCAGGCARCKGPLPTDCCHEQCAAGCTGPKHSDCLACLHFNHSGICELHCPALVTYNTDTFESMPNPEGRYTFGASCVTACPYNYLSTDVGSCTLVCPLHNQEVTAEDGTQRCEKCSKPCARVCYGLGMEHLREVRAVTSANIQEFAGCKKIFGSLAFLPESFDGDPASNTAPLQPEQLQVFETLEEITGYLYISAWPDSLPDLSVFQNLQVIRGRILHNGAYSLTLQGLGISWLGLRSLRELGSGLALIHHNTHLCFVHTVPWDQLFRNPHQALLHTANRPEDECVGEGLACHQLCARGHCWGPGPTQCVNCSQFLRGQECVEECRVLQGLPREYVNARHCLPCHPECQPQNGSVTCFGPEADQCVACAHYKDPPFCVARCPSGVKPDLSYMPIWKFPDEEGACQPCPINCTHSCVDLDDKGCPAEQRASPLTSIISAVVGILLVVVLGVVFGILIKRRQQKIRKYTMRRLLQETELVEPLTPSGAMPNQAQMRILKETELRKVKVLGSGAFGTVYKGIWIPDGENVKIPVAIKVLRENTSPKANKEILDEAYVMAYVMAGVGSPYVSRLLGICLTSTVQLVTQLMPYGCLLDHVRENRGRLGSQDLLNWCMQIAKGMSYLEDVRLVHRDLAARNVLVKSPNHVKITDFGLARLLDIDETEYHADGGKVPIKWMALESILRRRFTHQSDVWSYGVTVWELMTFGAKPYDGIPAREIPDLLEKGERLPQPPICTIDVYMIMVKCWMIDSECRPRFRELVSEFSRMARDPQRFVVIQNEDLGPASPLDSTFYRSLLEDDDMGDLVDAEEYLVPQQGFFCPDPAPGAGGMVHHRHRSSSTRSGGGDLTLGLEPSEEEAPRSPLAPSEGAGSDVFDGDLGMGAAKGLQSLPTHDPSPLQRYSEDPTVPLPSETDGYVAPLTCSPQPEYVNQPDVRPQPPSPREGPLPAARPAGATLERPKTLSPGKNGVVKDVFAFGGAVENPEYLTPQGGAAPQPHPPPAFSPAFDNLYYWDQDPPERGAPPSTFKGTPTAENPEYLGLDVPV
Sequence of ErbB2 WT (P04626 23-1255): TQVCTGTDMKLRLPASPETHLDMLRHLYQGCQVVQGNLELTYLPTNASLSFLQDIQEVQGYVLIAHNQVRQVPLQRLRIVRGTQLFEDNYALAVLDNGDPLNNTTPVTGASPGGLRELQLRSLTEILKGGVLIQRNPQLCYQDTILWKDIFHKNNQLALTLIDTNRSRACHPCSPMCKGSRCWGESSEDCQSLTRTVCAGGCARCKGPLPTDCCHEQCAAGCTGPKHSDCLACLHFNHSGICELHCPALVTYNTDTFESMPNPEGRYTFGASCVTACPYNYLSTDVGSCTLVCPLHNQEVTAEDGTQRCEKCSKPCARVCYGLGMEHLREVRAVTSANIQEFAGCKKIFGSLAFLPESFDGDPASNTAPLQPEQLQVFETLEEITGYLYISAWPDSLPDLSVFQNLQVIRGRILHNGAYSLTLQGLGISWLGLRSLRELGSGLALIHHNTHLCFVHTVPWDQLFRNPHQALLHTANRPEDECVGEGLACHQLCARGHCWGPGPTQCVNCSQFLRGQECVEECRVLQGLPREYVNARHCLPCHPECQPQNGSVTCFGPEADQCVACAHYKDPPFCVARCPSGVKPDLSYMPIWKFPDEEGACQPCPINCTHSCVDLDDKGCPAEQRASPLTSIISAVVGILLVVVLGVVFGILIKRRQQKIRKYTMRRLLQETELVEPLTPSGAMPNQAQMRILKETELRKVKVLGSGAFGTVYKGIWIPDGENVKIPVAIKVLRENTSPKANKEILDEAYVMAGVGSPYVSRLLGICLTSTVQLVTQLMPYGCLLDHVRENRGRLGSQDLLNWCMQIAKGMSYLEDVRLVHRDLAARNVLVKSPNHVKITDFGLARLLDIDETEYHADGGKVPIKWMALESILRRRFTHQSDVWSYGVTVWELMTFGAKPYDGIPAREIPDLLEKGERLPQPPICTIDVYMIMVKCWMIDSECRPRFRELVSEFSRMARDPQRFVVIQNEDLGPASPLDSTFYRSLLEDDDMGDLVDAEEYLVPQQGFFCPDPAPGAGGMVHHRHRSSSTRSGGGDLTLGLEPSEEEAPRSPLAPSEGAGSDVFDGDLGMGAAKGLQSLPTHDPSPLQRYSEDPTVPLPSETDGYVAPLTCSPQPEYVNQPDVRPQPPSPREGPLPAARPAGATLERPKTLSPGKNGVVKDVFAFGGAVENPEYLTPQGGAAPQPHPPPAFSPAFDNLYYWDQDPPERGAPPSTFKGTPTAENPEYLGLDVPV
Sequence of EGFR wild type (EGFR WT) (P00533 25-1210): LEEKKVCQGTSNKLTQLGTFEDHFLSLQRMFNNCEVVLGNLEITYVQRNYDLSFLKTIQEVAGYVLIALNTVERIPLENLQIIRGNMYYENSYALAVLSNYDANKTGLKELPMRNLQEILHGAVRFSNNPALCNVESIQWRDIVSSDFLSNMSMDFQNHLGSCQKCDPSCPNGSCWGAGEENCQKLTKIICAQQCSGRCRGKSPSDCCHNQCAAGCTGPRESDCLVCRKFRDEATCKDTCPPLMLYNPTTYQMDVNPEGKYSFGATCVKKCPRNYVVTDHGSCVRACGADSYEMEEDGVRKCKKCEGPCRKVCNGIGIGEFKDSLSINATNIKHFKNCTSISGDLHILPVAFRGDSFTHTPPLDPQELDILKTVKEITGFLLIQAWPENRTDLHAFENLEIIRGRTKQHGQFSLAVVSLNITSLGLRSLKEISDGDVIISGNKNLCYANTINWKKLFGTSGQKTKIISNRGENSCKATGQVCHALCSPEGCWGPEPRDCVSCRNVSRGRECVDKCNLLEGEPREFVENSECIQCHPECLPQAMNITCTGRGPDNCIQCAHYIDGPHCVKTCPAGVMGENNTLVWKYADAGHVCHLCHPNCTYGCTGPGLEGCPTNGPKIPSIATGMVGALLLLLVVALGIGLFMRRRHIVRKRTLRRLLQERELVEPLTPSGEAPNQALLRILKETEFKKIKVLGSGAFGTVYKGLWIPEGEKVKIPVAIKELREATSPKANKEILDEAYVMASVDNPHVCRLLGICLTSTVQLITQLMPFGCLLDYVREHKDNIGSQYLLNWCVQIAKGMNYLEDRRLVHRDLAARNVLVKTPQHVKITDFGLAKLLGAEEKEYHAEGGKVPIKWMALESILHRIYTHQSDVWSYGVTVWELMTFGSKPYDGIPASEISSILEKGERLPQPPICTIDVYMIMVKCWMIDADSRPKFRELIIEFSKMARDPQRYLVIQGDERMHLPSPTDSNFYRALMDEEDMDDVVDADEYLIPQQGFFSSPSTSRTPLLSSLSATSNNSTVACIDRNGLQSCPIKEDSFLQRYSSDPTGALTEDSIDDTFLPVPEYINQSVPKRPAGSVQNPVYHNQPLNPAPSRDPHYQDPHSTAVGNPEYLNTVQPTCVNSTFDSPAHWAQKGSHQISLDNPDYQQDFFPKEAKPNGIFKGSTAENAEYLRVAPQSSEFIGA

SMILES	IC50 [1] [nM]	IC50 ([2]; Assay 1 IC50 (nM)) [nM]	IC50 (EGFR wild type (EGFR WT)) [nM]	IC50 (ErbB2 WT) [nM]	IC50 (EGFR) [nM]	IC50 ([2]; read-out: Assay 1 IC50) [nM]
Cn1cnc2cc(Oc3ccc(Nc4ncnc5cnc(N6CC7(CCOC7)C6)nc45)cc3Cl)ccc21 [Example 442]	105	69.5	≥ 5000	180	≥ 10000	
CO[C@H]1C[C@@H](Nc2ncc3ncnc(Nc4ccc(Oc5ccc6c(c5)ncn6C)c(C)c4)c3n2)C1 [Example 260]	21.5		≥ 5000	42	≥ 10000	31.8
Cn1cnc2cc(Oc3ccc(Nc4ncnc5cnc(N6C[C@@H]7CC[C@H]6CO7)nc45)cc3Cl)ccc21 [Example 446]	123		≥ 5000	134	≥ 10000	20.7
CCN(CC(C)(C)O)c1ncc2ncnc(Nc3ccc(Oc4ccc5c(c4)ncn5C)c(C)c3)c2n1 [Example 478]	109		≥ 5000	41.6	≥ 10000	27.9
Cn1cnc2cc(Oc3ccc(Nc4ncnc5cnc(N6C[C@H]7CC[C@@H]6CO7)nc45)cc3Cl)ccc21 [Example 451]	24.7	42.7	≥ 5000	63.8	3500	
Cc1cc(Nc2ncnc3cnc(N4CCC[C@H]4C(C)(C)O)nc23)ccc1Oc1ccc2c(c1)ncn2C [Example 408]	42.1		≥ 5000	65.6	≥ 10000	32.6
Clc1cc(Nc2ncnc3cnc(N4CC5CCC(C4)O5)nc23)ccc1Oc1ccn2ncnc2c1 [Example 383]	4140		≥ 5000	75.3	≥ 10000	56.3
Cn1cnc2cc(Oc3ccc(Nc4ncnc5cnc(N6C[C@@H]7C[C@H]6C[C@H]7O)nc45)cc3Cl)ccc21 [Example 492]	37.2		≥ 5000	37.8	4730	24.7
CN(c1ncc2ncnc(Nc3ccc(Oc4ccc5c(c4)ncn5C)c(Cl)c3)c2n1)[C@H]1CCOC1 [Example 117, (S)—N8-(3-chloro-4-((1-methyl-1H-benzo[d]imidazol-5-yl)oxy)phenyl)-N2-methyl-N2-(tetrahydrofuran-3-yl)pyrimido[5,4-d]pyrimidine-2,8-diamine]	8.3		≥ 5000	93.3	≥ 10000	46.7
Cn1cnc2cc(Oc3ccc(Nc4ncnc5cnc(N6CC7CCC(C6)O7)nc45)cc3Cl)ccc21 [Example 447]	12.2	46.8	≥ 5000	91	≥ 10000	
Cc1cc(Nc2ncnc3cnc(N4CCN[C@H](C)C4)nc23)ccc1Oc1ccn2ncnc2c1 [Example 352]	147		≥ 5000	131	≥ 10000	37.5
Cn1cnc2cc(Oc3ccc(Nc4ncnc5cnc(N6CCN(CC(F)F)CC6)nc45)cc3Cl)ccc21 [Example 484]	22.7		≥ 5000	124	≥ 10000	34.4
Cc1cc(Nc2ncnc3cnc(N4C[C@]5(CCOC5)CC4=O)nc23)ccc1Oc1ccc2c(c1)ncn2C [Example 391]	143		≥ 5000	298	≥ 10000	94.3
CN(c1ncc2ncnc(Nc3ccc(Oc4ccn5ncnc5c4)c(Cl)c3)c2n1)C1COC1 [Example 424]	44.9		≥ 5000	19.4	3930	16
CON1CCN(c2ncc3ncnc(Nc4ccc(Oc5ccn6ncnc6c5)c(Cl)c4)c3n2)CC1 [Example 436]	61.1		≥ 5000	25	≥ 10000	15.4
Cn1cnc2cc(Oc3ccc(Nc4ncnc5cnc(N6C[C@H]7C[C@@H]6CO7)nc45)cc3Cl)ccc21 [Example 455]	58.2		≥ 5000	176	≥ 10000	48.7
Cc1cc(Nc2ncnc3cnc(N4C[C@@H]5[C@H](C4)[C@@H]4CC[C@H]5O4)nc23)ccc1Oc1ccc2c(c1)ncn2C [Example 363]	26.2		≥ 5000	72.4	≥ 10000	26.1

SMILES	IC50 [1] [nM]	IC50 ([2]; Assay 1 IC50 (nM)) [nM]	IC50 (EGFR wild type (EGFR WT)) [nM]	IC50 (ErbB2 WT) [nM]	IC50 (EGFR) [nM]	IC50 ([2]; read-out: Assay 1 IC50) [nM]
N#CC[C@@H]1CCN(c2ncc3ncnc(Nc4ccc(Oc5ccn6ncnc6c5)c(Cl)c4)c3n2)C1 [Example 416]	27.1		≥ 5000	21.5	2240	11.3
Cc1cc(Nc2ncnc3cnc(N4CC5CC(C4)C5O)nc23)ccc1Oc1ccc2c(c1)ncn2C (stereo not drawn) [Example 464]	83.1	9.4	≥ 5000	60.2	≥ 10000	
CN(CC1(O)CCC1)c1ncc2ncnc(Nc3ccc(Oc4ccn5ncnc5c4)c(Cl)c3)c2n1 [Example 329]	85.2		≥ 5000	37.7	5060	19.8
Cc1cc(Nc2ncnc3cnc(N4C5CCC4COC5)nc23)ccc1Oc1ccn2ncnc2c1 [Example 419]	538		≥ 5000	196	≥ 10000	110
Cc1cc(Nc2ncnc3cnc(N4CC[C@@H](C#N)C4)nc23)ccc1Oc1ccn2ncnc2c1 [Example 404]	182		≥ 5000	37	7550	22.8
Cc1c(Oc2ccn3ncnc3c2)ccc(Nc2ncnc3cnc(N(C)CC(C)(C)O)nc23)c1F [Example 306]	1000		≥ 5000	35.1	6840	16.7
CON1CCN(c2ncc3ncnc(Nc4ccc(Oc5ccn6ncnc6c5)c(C)c4)c3n2)CC1 [Example 96, N-(4-([1,2,4]triazolo[1,5-a]pyridin-7-yloxy)-3-methylphenyl)-6-(4-methoxypiperazin-1-yl)pyrimido[5,4-d]pyrimidin-4-amine]	96.1		≥ 5000	81.2	8890	23.1
COC[C@@H](C)Nc1ncc2ncnc(Nc3ccc(Oc4ccc5c(c4)ncn5C)c(C)c3)c2n1 [Example 61, (R)—N2-(1-methoxypropan-2-yl)-N8-(3-methyl-4-((1-methyl-1H-benzo[d]imidazol-5-yl)oxy)phenyl)pyrimido[5,4-d]pyrimidine-2,8-diamine]	49.5		≥ 5000	107	≥ 10000	36.9
Cc1c(Oc2ccc3c(c2)ncn3C)ccc(Nc2ncnc3cnc(N(C)C)nc23)c1F [Example 71, N8-(2-fluoro-3-methyl-4-((1-methyl-1H-benzo[d]imidazol-5-yl)oxy)phenyl)-N2,N2-dimethylpyrimido[5,4-d]pyrimidine-2,8-diamine 2,2,2-trifluoroacetate]	76.6	70.2	≥ 5000	299	≥ 10000	
Cc1cc(Nc2ncnc3cnc(N(C)[C@@H]4CCCOC4)nc23)ccc1Oc1ccn2ncnc2c1 [Example 415]	94.6		≥ 5000	16.8	970	16.9
Cc1cc(Nc2ncnc3cnc(NC(C)C)nc23)ccc1Oc1ccc2c(c1)ncn2C [Example 261]	21.9		≥ 5000	86.1	≥ 10000	48.8
OC1(CNc2ncc3ncnc(Nc4ccc(Oc5ccn6ncnc6c5)c(Cl)c4)c3n2)COC1 [Example 326]	32.1		≥ 5000	32.6	2340	14.4
Cc1cc(Nc2ncnc3cnc(O[C@H]4CN(C)CC[C@H]4F)nc23)ccc1Oc1ccc2c(c1)ncn2C [Example 293]	81.2		≥ 5000	568	≥ 10000	87.7
Cc1cc(Nc2ncnc3cnc(N4CCC4)nc23)ccc1Oc1ccc2scnc2c1 [Example 44, 6-(azetidin-1-yl)-N-(4-(benzo[d]thiazol-5-yloxy)-3-methylphenyl)pyrimido[5,4-d]pyrimidin-4-amine 2,2,2-trifluoroacetate]	70.6		≥ 5000	315	3310	103
Cc1c(Oc2ccn3ncnc3c2)ccc(Nc2ncnc3cnc(N4CC[C@@](C)(O)C4)nc23)c1F [Example 308]	492		≥ 5000	28.8	≥ 10000	15.1
COC[C@H](O)CN(C)c1ncc2ncnc(Nc3ccc(Oc4ccn5ncnc5c4)c(Cl)c3)c2n1 [Example 325]	166		≥ 5000	45.3	4880	27.5
